Values after ≈ are worked out from the molar mass of the structure shown. Read-outs that look alike come from different tables or passages of the source. A value given as a limit tells only on which side of the number the result lay.

What all share (type): cell-based
Assay [1] deals with H37Rv strain of M. tuberculosis. The experiment in a line: BACTEC 460 radiometric system in BACTEC 12B medium: inhibition and MIC. The following applies: for MIC: lowest concentration inhibiting 99% of the inoculum.
For assay [2], the system named is M. tuberculosis H37Ra. The experiment in a line: colorimetric microdilution broth assay with alamar Blue, initial screen at four log10 dilutions. The following applies: initial screening at 0.128, 1.28, 12.8 and 128 μg/mL. How it is done:
The compounds synthesized above were evaluated for activity against M. tuberculosis H37Ra using a colorimetric microdilution broth assay that incorporated the REDOX indicator alamar Blue, which indicates the growth and viability by the metabolic reduction of the dye from blue to red^18.
In an initial screen, the compounds were assayed in duplicate at four log10 dilutions, with the highest concentration being 128 μg/mL (therefore, tested concentrations were 0.128, 1.28, 12.8, and 128 μg/mL). Each solubilized test compound was diluted in broth medium (Middlebrook 7H9+ADC enrichment+0.2% glycerol) at twice the desired concentration and 0.05 mL of each dilution then added to appropriate wells in duplicate in a 96 well (U-shaped) microtiter plates. A plate format was designed for up to seven (7) compounds per plate. Each plate also included uninoculated drug controls, viability controls, uninoculated medium controls, and positive drug controls. The inoculum for each well consisted of 0.05 mL of culture, standardized as described above to provide an inoculum in each microtiter well of approximately 10^5 CFU/mL. The plates were covered with a lid, placed in polyethylene bags and incubated for at 37° C. for 6 days. At that time, alamar Blue, diluted in Tween 80, was added to each well followed by further incubation for about 20 hours. The plates were read in an optical microplate reader programmed to subtract absorbance at 600 nm from absorbance at 570 nm. This effectively blanked out turbidity and absorbance due to oxidized dye. The amount of dye reduced, resulting in a change from blue to red, is indicative of drug yielding a differential absorption of zero or less.
In general terms: In broth dilution the organism is exposed to a series of concentrations in liquid medium.

For assay [3], the system named is M. tuberculosis H37Ra. The experiment in a line: MIC and MBC determination using 2-fold dilutions. The following applies: for MIC / MBC: Mycobacterium tuberculosis.
Setting [4] is: Mycobacterium tuberculosis, H37RA, read-out: MIC.
Where [5] appears, read: Mycobacterium tuberculosis, H37RA.
Where [6] appears, read: 2-fold dilutions, lowest concentration that completely inhibits growth, H37Ra, read-out: MIC.
Where [7] appears, read: minimum bactericidal concentration, H37Ra, read-out: MBC.

Take “7,8-Dihydrosoulattrolide [7,8-Dihydrosoulattrolide (5)]”: the % Inhibition (usually how much of the control response was suppressed) in assay [1] (12.5 μg/mL) is reported as 99%. For the same molecule, the MIC – broadly, the least concentration at which growth counts as inhibited – in assay [1] came out at 6.25 µg/mL.
The matching figures for `CCCc1cc(=O)oc2c3c(c4c(c12)OC(C)(C)C=C4)O[C@H](C)[C@@H](C)C3=O` (racemic) [(±)-6]: 59% and above 12.5 µg/mL.
On to `CCCc1cc(=O)oc2c3c(c4c(c12)OC(C)(C)CC4)OC(C)C(C)C3=O` (racemic) [(±)-7,8-Dihydro-12-Oxocalanolide A (7), (±)-7,8-Dihydro-12-Oxocalanolide A], for which the “% Inhibition” value in assay [1] (12.5 μg/mL) turned out to be 43%. The minimal inhibitory concentration (MIC) in assay [1] was above 12.5 µg/mL.
As to `CCCc1cc(=O)oc2c(C(=O)CC)c(OCCN3CCOCC3)c3c(c12)OC(C)(C)CC3` [2,2-Dimethyl-5-(2-morpholin-4-yl-ethoxy)-6-propionyl-10-propyl-3,4-dihydro-2H-pyrano[2,3-f]-chromen-8-one], in the assay with M. tuberculosis H37Ra [2] (setting [4]), the minimum inhibitory concentration (MIC) was above 128 µg/mL.
Regarding `CCCc1cc(=O)oc2c3c(c4c(c12)OC(C)(C)C=C4)O[C@H](C)[C@@H](C)C3=O` [(+)-12-Oxocalanolide A (6), (+)-12-Oxocalanolide A], the “% Inhibition” value in assay [1] (12.5 μg/mL) came out at 78%. For the same molecule, the MIC in assay [1] is above 12.5 µg/mL.
For `CCCc1cc(=O)oc2c3c(c4c(c12)OC(C)(C)C=C4)O[C@H](C)[C@H](C)C3=O` [(+)-Calanolide D (8), (+)-Calanolide D], in that order: 57% and above 12.5 µg/mL.
In the case of `CCCc1cc(=O)oc2c3c(c4c(c12)OC(C)(C)C=C4)O[C@@H](C)[C@H](C)[C@@H]3O` [(−)-Calanolide B (3), (−)-Calanolide B], in assay [1] (12.5 μg/mL), the “% Inhibition” value is 99%. In assay [1], this molecule gave a minimum inhibitory concentration (MIC) of 6.25 µg/mL (≈ 16.9 µM).
As for `CCCc1cc(=O)oc2c(C(O)CC)c(O)c3c(c12)OC(C)(C)C=C3` (stereo not shown) [Compound 11a, 5-Hydroxy-6-(1-hydroxypropyl)-2,2-dimethyl-10-propyl-2H-pyrano[2,3-f]chromen-8-one], in the assay on M. tuberculosis H37Ra [2] (setting [4]), the MIC fell in the range of 12.8 to 128 µg/mL (≈ 37.2 to 372 µM).
In the assay on M. tuberculosis H37Ra [2] (setting [5]), `CCCc1cc(=O)oc2c(C(O)CC)c(OC)c3c(c12)OC(C)(C)C=C3` (stereo not shown) [Compound 11b, 6-(1-Hydroxypropyl)-5-methoxy-2,2-dimethyl-10-propyl-2H-pyrano[2,3-f]chromen-8-one] returned a minimal inhibitory concentration (MIC) of 12.8 to 128 µg/mL (≈ 35.7 to 357 µM).
Turning to `CCCc1cc(=O)oc2c(C(O)CC)c(OCCO)c3c(c12)OC(C)(C)C=C3` (stereo not shown) [Compound 11e, 5-(2-Hydroxyethoxy)-6-(1-hydroxypropyl)-2,2-dimethyl-10-propyl-2H-pyrano[2,3-f]chromen-8-one], the MIC in the assay with M. tuberculosis H37Ra [2] (setting [4]) fell in the range of 12.8 to 128 µg/mL (≈ 33 to 330 µM).
Turning to `CCCc1cc(=O)oc2c(C(O)CC)c(O)c3c(c12)OC(C)(C)CC3` (stereo not shown) [Compound 12a, 5-Hydroxy-6-(1-hydroxypropyl)-2,2-dimethyl-10-propyl-3,4-dihydro-2H-pyrano[2,3-f]chromen-8-one], the minimum inhibitory concentration (MIC) in the assay with M. tuberculosis H37Ra [2] (setting [4]) lay in the range of 12.8 to 128 µg/mL (≈ 36.9 to 369 µM).
The molecule `CCCc1cc(=O)oc2c(C(O)CC)c(OC)c3c(c12)OC(C)(C)CC3` (stereo not shown) [Compound 12b, 6-(1-Hydroxypropyl)-5-methoxy-2,2-dimethyl-10-propyl-3,4-dihydro-2H-pyrano[2,3-f]chromen-8-one] returned a minimal inhibitory concentration (MIC) in the assay on M. tuberculosis H37Ra [2] (setting [5]) of 12.8 to 128 µg/mL (≈ 35.5 to 355 µM).
In the case of `CCCc1cc(=O)oc2c(C(O)CC)c(OCCO)c3c(c12)OC(C)(C)CC3` (stereo not shown) [Compound 12e, 5-(2-Hydroxyethoxy)-6-(1-hydroxypropyl)-2,2-dimethyl-10-propyl-3,4-dihydro-2H-pyrano[2,3-f]chromen-8-one], the MIC in the assay on M. tuberculosis H37Ra [2] (setting [4]) lay within 12.8 to 128 µg/mL (≈ 32.8 to 328 µM).
As for `C=CCOc1cc(OCC=C)c2c(CCC)cc(=O)oc2c1C(O)CC` (stereo not shown) [Compound 21d, 5,7-Bis-allyloxy-8-(1-hydroxy-propyl)-4-propyl-chromen-2-one], the MIC is 1.28 to 12.8 µg/mL (≈ 3.57 to 35.7 µM) with M. tuberculosis H37Ra [2] (setting [4]) and 16 µg/mL (≈ 44.6 µM) in the assay on M. tuberculosis H37Ra [3] (setting [6]). Further, the minimal bactericidal concentration (MBC) (usually the smallest concentration meeting the test's criterion for killing) in the assay on M. tuberculosis H37Ra [3] (setting [7]) is above 64 µg/mL.
Regarding `CCCc1cc(=O)oc2c(C(=O)CC)c(O)c3c(c12)OC(C)(C)C=C3` [Compound 30, 5-hydroxy-2,2-dimethyl-6-propionyl-10-propyl-2H-pyrano[2,3-f]chromen-8-one], the minimum inhibitory concentration (MIC) with M. tuberculosis H37Ra [2] (setting [4]) is above 128 µg/mL.
The same measure, in the same setting: as for `CCCc1cc(=O)oc2c(C(=O)CC)c(OC)c3c(c12)OC(C)(C)C=C3` [Compound 31b, 5-Methoxy-2,2-dimethyl-6-propionyl-10-propyl-2H-pyrano[2,3-f]chromen-8-one], the figure is 12.8 to 128 µg/mL (≈ 35.9 to 359 µM); as for `CCCc1cc(=O)oc2c(C(=O)CC)c(OCCO)c3c(c12)OC(C)(C)C=C3` [Compound 31e, 5-(2-Hydroxy-ethoxy)-2,2-dimethyl-6-propionyl-10-propyl-2H-pyrano[2,3-f]chromen-8-one], 12.8 to 128 µg/mL (≈ 33.1 to 331 µM); as for `CCCc1cc(=O)oc2c(C(=O)CC)c(OC)cc(OC)c12` [Compound 43b, 5,7-Dimethoxy-8-propionyl-4-propyl-chromen-2-one], above 128 µg/mL.
Still for that read-out and setting: under `CCCc1cc(=O)oc2c(C(=O)CC)c(O)c3c(c12)OC(C)(C)CC3` [Compound 44a, 5-Hydroxy-2,2-dimethyl-6-propionyl-10-propyl-3,4-dihydro-2H-pyrano[2,3-f]chromen-8-one] stands above 128 µg/mL; under `CCCc1cc(=O)oc2c(C(=O)CC)c(OCCO)c3c(c12)OC(C)(C)CC3` [Compound 44e, 5-(2-Hydroxyethoxy)-2,2-dimethyl-6-propionyl-10-propyl-3,4-dihydro-2H-pyrano[2,3-f]chromen-8-one], 12.8 to 128 µg/mL (≈ 33 to 330 µM); under `CCCc1cc(=O)oc2c(C(=O)CC)c(OC(C)C)c3c(c12)OC(C)(C)CC3` [Compound 44h, 5-Isopropoxy-2,2-dimethyl-6-propionyl-10-propyl-3,4-dihydro-2H-pyrano[2,3-f]chromen-8-one], above 128 µg/mL.
Consider `CCCc1cc(=O)oc2c(C(=O)CC)c(CC(=O)OCC)c3c(c12)OC(C)(C)CC3` [Compound 44i, 5-Ethoxycarbonylmethyl-2,2-dimethyl-6-propionyl-10-propyl-3,4-dihydro-2H,8H-pyrano[2,3-f]chromen-8-one], for which, in the assay on M. tuberculosis H37Ra [2] (setting [5]), the minimum inhibitory concentration (MIC) is above 128 µg/mL.
As for `CCCc1cc(=O)oc2c(C(=O)CC)c(OCCO)c3c(c12)OC(C)(C)CC3` [Compound 44k], in the assay with M. tuberculosis H37Ra [2], the minimal inhibitory concentration (MIC) is above 128 µg/mL.
For the molecule `CCCc1cc(=O)oc2c(C(N)CC)c(O)c3c(c12)OC(C)(C)C=C3` (stereo not shown) [Compound 45a, 6-(1-Aminopropyl)-5-hydroxy-2,2-dimethyl-10-propyl-2H-pyrano[2,3-f]chromen-8-one], the minimal inhibitory concentration (MIC) in the assay on M. tuberculosis H37Ra [2] (setting [4]) was 12.8 to 128 µg/mL (≈ 37.3 to 373 µM).
Same read-out and setting: as for `CCCc1cc(=O)oc2c(C(CC)NCC)c(OC)c3c(c12)OC(C)(C)C=C3.Cl` (stereo not shown) [Compound 45g, 6-(1-Ethylaminopropyl)-5-methoxy-2,2-dimethyl-10-propyl-2H-pyrano[2,3-f]chromen-8-one, hydrochloride], the figure is 12.8 to 128 µg/mL.
With `CCCc1cc(=O)oc2c(C(=O)CC)c3c(c(O)c12)C=CC(C)(C)O3` [Compound 47], in the assay on M. tuberculosis H37Ra [2] (setting [4]), the MIC fell in the range of 12.8 to 128 µg/mL (≈ 37.4 to 374 µM).
The same measure, in the same setting: under `CCCc1cc(=O)oc2c(C(=O)CC)c3c(c(OCC)c12)C=CC(C)(C)O3` [Compound 48] stands 12.8 to 128 µg/mL (≈ 34.6 to 346 µM).
Molecule `C#CCOc1cc2c(c3oc(=O)cc(CCC)c13)C(O)C(C)C(C)O2` (stereo not drawn) [Compound trans-17d, 5-(Prop-2-ynyloxy)-10-hydroxy-8,9-dimethyl-4-propyl-9,10-dihydro-8H-pyrano[2,3-f]chromen-2-one] had a minimum inhibitory concentration (MIC) in the assay on M. tuberculosis H37Ra [2] above 128 µg/mL.
For the molecule `C[C@H]1[C@H](C)Oc2c3c(c4c(-c5ccccc5)cc(=O)oc4c2[C@H]1O)OC(C)(C)C=C3` [Soulattrolide (4), Soulattrolide], the inhibition (usually the relative decrease from the control value, in per cent) at 12.5 µg/mL in assay [1] (Mycobacterium tuberculosis, 12.5 μg/mL) stood at 99%. Moreover, the minimal inhibitory concentration (MIC) in assay [1] (Mycobacterium tuberculosis, read-out: MIC) is 3.13 µg/mL (≈ 7.74 µM).
`CCCc1cc(=O)oc2c3c(cc(OC)c12)OC(C)C(C)C3O` (stereo not drawn) [cis-17b, 5-Methoxy-10-hydroxy-8,9-dimethyl-4-propyl-9,10-dihydro-8H-pyrano[2,3-f]chromen-2-one] displayed an MIC in the assay with M. tuberculosis H37Ra [2] above 128 µg/mL.
`C=CCOc1cc2c(c3oc(=O)cc(CCC)c13)C(O)C(C)C(C)O2` (stereo not drawn) [cis-17c, 5-(Allyloxy)-10-hydroxy-8,9-dimethyl-4-propyl-9,10-dihydro-8H-pyrano[2,3-f]chromen-2-one]: the “effect on M. tuberculosis” value in the assay on M. tuberculosis H37Ra [3] is “bactericidal”. Further, in the assay on M. tuberculosis H37Ra [3] (H37RA), the minimal bactericidal concentration (MBC) came to 64 µg/mL (≈ 186 µM) and inhibition of growth (MIC) required 16 µg/mL (≈ 46.5 µM).
On to `C=CC(C)Oc1cc2c(c3oc(=O)cc(CCC)c13)C(O)C(C)C(C)O2` (stereo not drawn) [cis-17f, 5-(1-Methylallyloxy)-10-hydroxy-8,9-dimethyl-4-propyl-9,10-dihydro-8H-pyrano[2,3-f]chromen-2-one], for which the MIC in the assay on M. tuberculosis H37Ra [3] (setting [6]) was 16 µg/mL (≈ 44.6 µM). For the same molecule, the MBC in the assay on M. tuberculosis H37Ra [3] (setting [7]) was above 64 µg/mL.
`C=CCOc1cc2c(c3oc(=O)cc(CCC)c13)C(O)C(C)C(C)O2` (stereo not drawn) [trans-17c, 5-(Allyloxy)-10-hydroxy-8,9-dimethyl-4-propyl-9,10-dihydro-8H-pyrano[2,3-f]chromen-2-one] gave an MIC against M. tuberculosis H37Ra [2] above 128 µg/mL.
On the same count and under the same terms, as for `C=C(C)COc1cc2c(c3oc(=O)cc(CCC)c13)C(O)C(C)C(C)O2` (stereo not drawn) [trans-17g, 5-(2-Methylallyloxy)-10-hydroxy-8,9-dimethyl-4-propyl-9,10-dihydro-8H-pyrano[2,3-f]chromen-2-one], the figure is above 128 µg/mL.

The values are drawn from US6670383B2, “Pyranocoumarin compounds as a novel pharmacophore with anti-TB activity” (priority 2001, dated 2003).
